In the supplement of paper PMC10307832:

How the values were obtained:
Assay in all cases: relative viability (nuclei count vs DMSO), 5 days (fraction); higher = more cells survive
XMD14-99 + Vorinostat = compound: CN1CCN(CC1)C2=CC(=C(C=C2)NC3=NC(=C(S3)C(=O)C4=C(C=CC=C4Cl)Cl)N)OC [XMD14-99] + O=C(CCCCCCC(=O)Nc1ccccc1)NO [Vorinostat] (partner 1 µM)
How it was run: (§1)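 Five library-drug doses in √10 steps were combined with a fixed anchor-drug dose, or a single drug was given alone, by pin tool to lung cancer cell lines in 1536-well plates the day after seeding. Nuclei were stained and counted after 5 days. Relative viability is the nuclei count in treated wells over that in vehicle wells, taken as the median of duplicate plates.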

AZD1208 + Luminespib = compound: N[C@@H]1CCCN(c2c(/C=C3\SC(=O)NC3=O)cccc2-c2ccccc2)C1 [AZD1208] + CCNC(=O)c1noc(-c2cc(C(C)C)c(O)cc2O)c1-c1ccc(CN2CCOCC2)cc1 [Luminespib] (partner 0.01 µM)
How it was run: as §1

AZD1208 + Linsitinib = compound: N[C@@H]1CCCN(c2c(/C=C3\SC(=O)NC3=O)cccc2-c2ccccc2)C1 [AZD1208] + C[C@]1(O)C[C@@H](c2nc(-c3ccc4ccc(-c5ccccc5)nc4c3)c3c(N)nccn32)C1 [Linsitinib] (partner 1 µM)
How it was run: as §1

AZD1208 + Olaparib = compound: N[C@@H]1CCCN(c2c(/C=C3\SC(=O)NC3=O)cccc2-c2ccccc2)C1 [AZD1208] + O=C(c1cc(Cc2n[nH]c(=O)c3ccccc23)ccc1F)N1CCN(C(=O)C2CC2)CC1 [Olaparib] (partner 8 µM)
How it was run: as §1

Cell Line	relative viability (XMD14-99 + Vorinostat; first compound 0.08 µM)	relative viability (XMD14-99 + Vorinostat; first compound 0.8 µM)	relative viability (XMD14-99 + Vorinostat; first compound 2.53 µM)	relative viability (XMD14-99 + Vorinostat; first compound 8 µM)	relative viability (AZD1208 + Luminespib; first compound 0.08 µM)	relative viability (AZD1208 + Luminespib; first compound 0.253 µM)	relative viability (AZD1208 + Luminespib; first compound 0.8 µM)	relative viability (AZD1208 + Luminespib; first compound 2.53 µM)	relative viability (AZD1208 + Luminespib; first compound 8 µM)	relative viability (AZD1208 + Linsitinib; first compound 0.08 µM)	relative viability (AZD1208 + Linsitinib; first compound 0.253 µM)	relative viability (AZD1208 + Linsitinib; first compound 0.8 µM)	relative viability (AZD1208 + Linsitinib; first compound 2.53 µM)	relative viability (AZD1208 + Linsitinib; first compound 8 µM)	relative viability (AZD1208 + Olaparib; first compound 0.08 µM)	relative viability (AZD1208 + Olaparib; first compound 0.253 µM)	relative viability (AZD1208 + Olaparib; first compound 0.8 µM)	relative viability (AZD1208 + Olaparib; first compound 2.53 µM)	relative viability (AZD1208 + Olaparib; first compound 8 µM)
BEN	0.591	0.547	0.595	0.522	0.254	0.271	0.285	0.244	0.303	0.815	0.806	0.654	0.572	0.46	1.01	0.985	0.722	0.758	0.59
EMC-BAC-2	0.493	0.585	0.447	0.199	1.12	1.2	1.13	1.11	0.812	0.848	0.818	0.747	0.815	0.796	0.517	0.536	0.494	0.472	0.448
LU99A	0.53	0.462	0.444	0.37	0.306	0.292	0.204	0.182	0.238	0.504	0.5	0.51	0.397	0.432	0.273	0.266	0.273	0.235	0.246
ABC-1	1.13	0.996	1.01	0.646	0.564	0.632	0.415	0.383	0.632	0.808	0.717	0.626	0.747	0.732	0.623	0.813	0.56	1.17	0.759
NCI-H2170	0.784	0.832	0.741	0.609	0.65	0.656	0.632	0.512	0.321	–	–	–	–	–	0.683	0.697	0.55	0.552	0.385
NCI-H1299	–	–	–	–	–	–	–	–	–	1.03	1.13	0.997	1.01	1.08	0.999	1.01	0.974	0.957	0.987
EBC-1	–	–	–	–	–	–	–	–	–	0.981	1.08	0.821	0.905	0.764	0.709	0.707	0.63	0.687	0.624
NCI-H2405	1	1.07	1	0.514	0.652	0.464	0.47	0.455	0.517	0.8	0.789	0.737	0.883	0.853	0.806	0.837	0.813	0.813	0.891
NCI-H2009	0.815	0.727	0.63	0.423	1.1	1.04	1.06	1.09	1.05	1.22	1.13	1.18	1.14	1.12	0.701	0.81	0.698	0.673	0.647
NCI-H441	0.823	0.75	0.745	0.681	0.393	0.331	0.26	0.342	0.265	0.477	0.593	0.381	0.497	0.457	0.578	0.529	0.545	0.502	0.366
PC-14	0.636	0.628	0.438	0.285	0.142	0.151	0.139	0.163	0.181	0.942	1.12	0.977	1	0.914	0.381	0.248	0.27	0.365	0.257
NCI-H2342	0.747	0.703	0.872	0.989	0.686	0.713	0.653	0.672	0.533	–	–	–	–	–	0.49	0.383	0.372	0.456	0.376
NCI-H1792	–	–	–	–	0.407	0.437	0.358	0.394	0.284	0.474	0.648	0.446	0.439	0.467	0.414	0.39	–	0.44	0.246
ChaGo-K-1	0.741	0.73	0.68	0.719	0.676	0.655	0.596	0.528	0.392	–	–	–	–	–	0.426	0.431	0.378	0.437	0.434
A549	–	–	–	–	–	–	–	–	–	0.513	0.553	0.504	0.462	0.512	0.345	0.38	0.306	0.261	0.235
NCI-H1563	–	–	–	–	0.556	0.532	0.561	0.478	0.504	1.18	1.19	1.18	1.26	1.16	–	–	–	–	–
SW 900	0.509	0.667	0.489	0.432	0.191	0.172	0.167	0.185	0.162	–	–	–	–	–	0.692	0.538	0.893	0.923	0.668
HCC-78	0.404	0.408	0.369	0.382	–	–	–	–	–	0.513	0.495	0.45	0.439	0.415	0.859	0.904	0.762	0.815	0.754
IA-LM	0.96	0.728	0.649	0.515	–	–	–	–	–	0.625	0.827	0.524	0.529	0.69	0.907	0.777	0.774	0.807	0.904
NCI-H1703	–	–	–	–	–	–	–	–	–	0.751	0.56	0.602	0.651	0.508	0.416	0.334	0.268	0.384	0.337
NCI-H1648	0.397	0.287	0.437	0.395	–	–	–	–	–	–	–	–	–	–	1.09	1.44	0.663	0.828	0.939
